# Test results taken from paper PMC4424274, “Evaluation of [^11C]CB184 for imaging and quantification of TSPO overexpression in a rat model of herpes encephalitis” (European Journal of Nuclear Medicine and Molecular Imaging, 2015).
# Target: T1, TSPO (Rattus norvegicus, UniProt P16257)
# T1 construct: from tissue; host or cells: Brain regions and peripheral organs of male Wistar rats, measured in vivo by PET and ex vivo by gamma counting
# Assay: Ex vivo biodistribution of [^11C]CB184 in control and HSE rats
# Method: PET scans were performed using a microPET Focus 220 camera (Siemens Medical Solutions Inc., Malvern, PA) on either day 6 or day 7 after inoculation with HSV-1 [18], depending on the severity of clinical symptoms. The rats were anaesthetized with 5 % isoflurane mixed with medical air at a flow rate of […]. After induction, anaesthesia was maintained with 1.5 – 2 % of isoflurane. The anaesthetized rats were positioned in the camera in a supine position with the head in the field of view. The PET tracer [^11C]CB184 was manually injected via the penile vein, and at the same time a dynamic 60-min scan was started. […] For 30 min the animals were kept under anaesthesia on the operation table after injection of the PET tracer into the penile vein, and were then placed in the scanner for a 30-min dynamic scan. A transmission scan was obtained in all rats using a ^57Co point source for attenuation and scatter correction. In the pretreated group, 5 mg/kg unlabelled PK11195 (Sigma-Aldrich, St. Louis, MO) in dimethyl sulphoxide (DMSO) at a concentration of 10 mg/ml was administered via a tail vein 5 min before injection of the PET tracer.
# The brain and peripheral organs were excised and dissected, and blood was centrifuged to collect a plasma sample. Tissues were weighed and radioactivity was measured in a gamma counter (LKB Wallac, Turku, Finland). Tracer uptake in each region was corrected for the injected tracer dose and body weight and expressed as standardized uptake value (SUV), which was defined as: radioactivity (MBq/cm^3)/[injected dose (MBq)/body weight (g)].
# [1] = HSE rats pretreated with 5 mg/kg PK11195, approximately 75 min after injection
# [2] = HSE rats, approximately 75 min after injection
# [3] = control (PBS) rats pretreated with 5 mg/kg PK11195, approximately 75 min after injection
# [4] = control rats, approximately 75 min after injection
smiles,measurement,setting,value
CCCN(CCC)C(=O)Cc1c(-c2ccc(O[11CH3])cc2)nc2c(Cl)cc(Cl)cn12 [[^11C]CB184],"SUV ex vivo, Adrenals",[1],8.14 ± 7.09 SUV
same,"SUV ex vivo, Bone",[1],0.39 ± 0.24 SUV
same,"SUV ex vivo, Colon",[1],0.49 ± 0.36 SUV
same,"SUV ex vivo, Fat",[1],0.72 ± 0.49 SUV
same,"SUV ex vivo, Heart",[1],0.77 ± 0.53 SUV
same,"SUV ex vivo, Hippocampus",[1],0.09 ± 0.05 SUV
same,"SUV ex vivo, Ileum",[1],2.74 ± 1.77 SUV
same,"SUV ex vivo, Kidney",[1],1.12 ± 0.75 SUV
same,"SUV ex vivo, Liver",[1],10.71 ± 9.25 SUV
same,"SUV ex vivo, Lung",[1],1.62 ± 0.98 SUV
same,"SUV ex vivo, Medulla",[1],0.13 ± 0.06 SUV
same,"SUV ex vivo, Pancreas",[1],0.62 ± 0.37 SUV
same,"SUV ex vivo, Parietal/temporal/occipital cortex",[1],0.10 ± 0.05 SUV
same,"SUV ex vivo, Plasma",[1],0.19 ± 0.04 SUV
same,"SUV ex vivo, Pons",[1],0.12 ± 0.10 SUV
same,"SUV ex vivo, Red blood cells",[1],0.11 ± 0.07 SUV
same,"SUV ex vivo, Spleen",[1],0.71 ± 0.55 SUV
same,"SUV ex vivo, Stomach",[1],0.82 ± 0.60 SUV
same,"SUV ex vivo, Striatum",[1],0.09 ± 0.06 SUV
same,"SUV ex vivo, Submandibularis",[1],0.79 ± 0.56 SUV
same,"SUV ex vivo, Testis",[1],0.29 ± 0.21 SUV
same,"SUV ex vivo, Thymus",[1],0.74 ± 0.46 SUV
same,"SUV ex vivo, Whole brain",[1],0.08 ± 0.08 SUV
same,"SUV ex vivo, Adrenals",[2],13.86 ± 4.42 SUV
same,"SUV ex vivo, Amygdala/piriform cortex",[2],0.52 ± 0.21 SUV
same,"SUV ex vivo, Bone",[2],0.98 ± 0.14 SUV
same,"SUV ex vivo, Colon",[2],3.29 ± 0.81 SUV
same,"SUV ex vivo, Fat",[2],0.57 ± 0.39 SUV
same,"SUV ex vivo, Heart",[2],23.69 ± 2.71 SUV
same,"SUV ex vivo, Hippocampus",[2],0.55 ± 0.21 SUV
same,"SUV ex vivo, Ileum",[2],6.20 ± 2.67 SUV
same,"SUV ex vivo, Kidney",[2],13.17 ± 2.25 SUV
same,"SUV ex vivo, Liver",[2],7.97 ± 1.73 SUV
same,"SUV ex vivo, Lung",[2],22.53 ± 2.41 SUV
same,"SUV ex vivo, Medulla",[2],1.51 ± 0.57 SUV
same,"SUV ex vivo, Olfactory bulb",[2],1.52 ± 0.22 SUV
same,"SUV ex vivo, Pancreas",[2],4.23 ± 0.76 SUV
same,"SUV ex vivo, Parietal/temporal/occipital cortex",[2],0.41 ± 0.14 SUV
same,"SUV ex vivo, Plasma",[2],0.28 ± 0.24 SUV
same,"SUV ex vivo, Pons",[2],1.26 ± 0.52 SUV
same,"SUV ex vivo, Red blood cells",[2],0.13 ± 0.01 SUV
same,"SUV ex vivo, Spleen",[2],11.76 ± 1.42 SUV
same,"SUV ex vivo, Stomach",[2],5.88 ± 1.87 SUV
same,"SUV ex vivo, Striatum",[2],0.45 ± 0.15 SUV
same,"SUV ex vivo, Submandibularis",[2],4.89 ± 0.75 SUV
same,"SUV ex vivo, Testis",[2],0.88 ± 0.12 SUV
same,"SUV ex vivo, Thymus",[2],3.23 ± 0.33 SUV
same,"SUV ex vivo, Whole brain",[2],0.99 ± 0.21 SUV
same,"SUV ex vivo, Adrenals",[3],7.72 ± 5.20 SUV
same,"SUV ex vivo, Bone",[3],0.31 ± 0.19 SUV
same,"SUV ex vivo, Colon",[3],0.42 ± 0.24 SUV
same,"SUV ex vivo, Fat",[3],0.48 ± 0.18 SUV
same,"SUV ex vivo, Heart",[3],0.68 ± 0.40 SUV
same,"SUV ex vivo, Hippocampus",[3],0.12 ± 0.08 SUV
same,"SUV ex vivo, Ileum",[3],2.31 ± 1.15 SUV
same,"SUV ex vivo, Kidney",[3],0.72 ± 0.44 SUV
same,"SUV ex vivo, Liver",[3],11.28 ± 5.43 SUV
same,"SUV ex vivo, Lung",[3],0.95 ± 0.57 SUV
same,"SUV ex vivo, Medulla",[3],0.12 ± 0.07 SUV
same,"SUV ex vivo, Pancreas",[3],0.57 ± 0.34 SUV
same,"SUV ex vivo, Parietal/temporal/occipital cortex",[3],0.10 ± 0.06 SUV
same,"SUV ex vivo, Plasma",[3],0.27 ± 0.15 SUV
same,"SUV ex vivo, Pons",[3],0.12 ± 0.08 SUV
same,"SUV ex vivo, Red blood cells",[3],0.11 ± 0.05 SUV
same,"SUV ex vivo, Spleen",[3],0.70 ± 0.47 SUV
same,"SUV ex vivo, Stomach",[3],0.70 ± 0.46 SUV
same,"SUV ex vivo, Striatum",[3],0.11 ± 0.07 SUV
same,"SUV ex vivo, Submandibularis",[3],0.70 ± 0.46 SUV
same,"SUV ex vivo, Testis",[3],0.30 ± 0.24 SUV
same,"SUV ex vivo, Thymus",[3],0.72 ± 0.44 SUV
same,"SUV ex vivo, Whole brain",[3],0.15 ± 0.08 SUV
same,"SUV ex vivo, Adrenals",[4],14.84 ± 5.45 SUV
same,"SUV ex vivo, Bone",[4],1.00 ± 0.26 SUV
same,"SUV ex vivo, Colon",[4],3.38 ± 0.97 SUV
same,"SUV ex vivo, Fat",[4],0.43 ± 0.21 SUV
same,"SUV ex vivo, Heart",[4],22.81 ± 2.80 SUV
same,"SUV ex vivo, Hippocampus",[4],0.39 ± 0.18 SUV
same,"SUV ex vivo, Ileum",[4],6.41 ± 3.07 SUV
same,"SUV ex vivo, Kidney",[4],12.52 ± 2.22 SUV
same,"SUV ex vivo, Liver",[4],7.57 ± 1.64 SUV
same,"SUV ex vivo, Lung",[4],18.39 ± 2.20 SUV
same,"SUV ex vivo, Medulla",[4],0.59 ± 0.14 SUV
same,"SUV ex vivo, Pancreas",[4],3.55 ± 0.52 SUV
same,"SUV ex vivo, Parietal/temporal/occipital cortex",[4],0.32 ± 0.06 SUV
same,"SUV ex vivo, Plasma",[4],0.18 ± 0.08 SUV
same,"SUV ex vivo, Pons",[4],0.63 ± 0.08 SUV
same,"SUV ex vivo, Red blood cells",[4],0.19 ± 0.18 SUV
same,"SUV ex vivo, Spleen",[4],13.23 ± 2.64 SUV
same,"SUV ex vivo, Stomach",[4],5.04 ± 0.82 SUV
same,"SUV ex vivo, Striatum",[4],0.28 ± 0.07 SUV
same,"SUV ex vivo, Submandibularis",[4],4.28 ± 1.02 SUV
same,"SUV ex vivo, Testis",[4],0.98 ± 0.11 SUV
same,"SUV ex vivo, Thymus",[4],3.36 ± 0.58 SUV
same,"SUV ex vivo, Whole brain",[4],0.66 ± 0.16 SUV
same,"SUV ex vivo, adrenal glands (mean ± SD)","pretreated with unlabelled PK11195, control and HSE groups together",7.93 ± 5.87 SUV
